This assay deals with T1, MMP-2 (Homo sapiens, UniProt P08253).
T1 construct: ProSpec Bio; Antibodies-Online; Elabscience; Abcam ENZ-769; ABIN7400042; PKSH033450
T1 sequence (P08253 110-660): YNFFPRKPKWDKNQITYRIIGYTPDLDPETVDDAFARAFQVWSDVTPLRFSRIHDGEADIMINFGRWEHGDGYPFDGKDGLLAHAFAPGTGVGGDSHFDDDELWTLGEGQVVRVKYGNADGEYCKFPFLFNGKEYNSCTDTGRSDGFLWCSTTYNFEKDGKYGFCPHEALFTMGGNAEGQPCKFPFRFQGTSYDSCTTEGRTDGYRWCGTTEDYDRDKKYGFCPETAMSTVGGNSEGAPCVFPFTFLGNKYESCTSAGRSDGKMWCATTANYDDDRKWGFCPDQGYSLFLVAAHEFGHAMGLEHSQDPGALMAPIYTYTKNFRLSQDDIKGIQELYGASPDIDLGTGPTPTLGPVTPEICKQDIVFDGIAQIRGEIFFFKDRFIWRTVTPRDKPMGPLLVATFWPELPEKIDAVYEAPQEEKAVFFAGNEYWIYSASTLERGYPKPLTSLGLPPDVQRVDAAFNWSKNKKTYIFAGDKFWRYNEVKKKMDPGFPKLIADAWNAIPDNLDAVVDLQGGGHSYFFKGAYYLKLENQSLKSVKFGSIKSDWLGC
Nature of the assay: Differential scanning fluorimetry (DSF). Format: binding. The note with it: for Dtm (ΔTm), average / Tm of MMP-2 with peptide, average: average of replicates; for Dtm (ΔTm) / Tm of MMP-2 with peptide: CTX experiment. Further details: Dtm (ΔTm): unit not given here. As to the method: The melting temperatures (Tm) of recombinant MMP-2 and its complexes with peptides were ascertained using BioRad CFX384 Touch real-time PCR (Hercules, CA, USA). The experiments were performed as previously described. The unfolding of the protein was detected using the fluorescent SYPRO-orange dye (Invitrogen, Carlsbad, CA, USA). MMP-2 and prospective ligand peptides were dissolved in 7.1 pH phosphate buffered saline (154 mM NaCl, 5.6 mM Na2PO4, 1.1 mM KH2PO4), and the reaction mixture was made to a final concentration of 1 µM of protein, either 30 µM ([…]) of peptide, and 1000x dilution of the SYPRO-Orange dye stock from the manufacturer. Excitation and emission filters of the dye were set at 450 − 490 nm and 560 − 580 nm, respectively. The temperature for the reaction was held at 25 °C for 5 min, and then a gradient of 25 °C to 95 °C was applied at a rate of 0.3 °C/min, and the fluorescence was recorded. To determine Tm of the protein, the first derivatives of melting curves were plotted using GraphPad Prism software, version 10.0.3.
On the technique in general: In DSF a fluorescence change marks the thermal transition of the protein.

From article PMC13065040 (PLOS One, 2026) come the findings set out here.

For the substance Chlorotoxin [Ctx], the “Dtm (ΔTm), average” value runs as follows: (peptide 30 (µM per method)) 2.368e-15; (peptide 50 (µM per method)) -0.2. In addition, the “Tm of MMP-2 with peptide, average” value by setting is: (peptide 30 (µM per method)) 47.7; (peptide 50 (µM per method)) 47.5. The “Dtm (ΔTm)” value by setting is: (peptide 30, replicate 1) -0.2; (peptide 30, replicate 2) 0.1; (peptide 30, replicate 3) 0.1; (peptide 50, replicate 1) -0.2; (peptide 50, replicate 2) -0.2; (peptide 50, replicate 3) -0.2. For the same substance, the Tm of MMP-2 with peptide came out at 47.5 °C (peptide 30, replicate 1); 47.8 °C (peptide 30, replicate 2); 47.8 °C (peptide 30, replicate 3); 47.5 °C (peptide 50, replicate 1); 47.5 °C (peptide 50, replicate 2); 47.5 °C (peptide 50, replicate 3).
